These results are taken from patent US20090030086A1, “ANTIMICROBIAL AGENTS” (priority 2005, published 2009).

Test [1] has as its system S. aureus ATCC 29213. Kind of test: MIC assay. The test is classed as cell-based, Staphylococcus aureus. Particulars: S. aureus ATCC 29213; Mueller-Hinton broth pH 7.2, aerobic, 37° C., 24 hours. The essentials: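 Broth microdilution in Mueller-Hinton broth at pH 7.2, incubated aerobically at 37 °C for 24 h and run in duplicate with medium-only and solvent/inoculum controls. The MIC was the lowest concentration whose well stayed visibly clear.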

In test [2] the test system is P. acnes NCTC 737. As to the kind of experiment: MBC assay. Particulars: P. acnes NCTC 737. The format is cell-based, Propionibacterium acnes. The essentials: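 Plates were then checked visually for growth. The MBC is the lowest lethal concentration; cultures were grown on Wilkins-Chalgren Anaerobe Medium at pH 6.0.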
The test system of test [3] is S. aureus ATCC 29213. Kind of test: Disc diffusion assay (DDA). The test is classed as cell-based, Staphylococcus aureus. The settings on record: S. aureus ATCC 29213; unsupplemented agar; 200 μg per disc (thymoquinone 50 μg, 2,6-dimethoxy-p-benzoquinone 100 μg). The essentials:
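Paper discs loaded with test compound (usually 200 μg/disc), solvent evaporated ≥30 min, placed on inoculated Mueller-Hinton agar pH 7.2. Incubated aerobically at 37 °C for 24 h; inhibition zone diameter measured and area calculated as π(D/2)^2.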

Test [4] deals with P. acnes NCTC 737. Kind of test: Supplemented disc diffusion assay. The format is cell-based, Propionibacterium acnes. The settings on record: P. acnes NCTC 737, 200 μg per disc (2,6-dimethoxy-p-benzoquinone 100 μg). The essentials: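 Propionibacterium discs loaded with 200 μg compound on Wilkins-Chalgren Anaerobe agar, pH 6.0, supplemented with Tween 80 (1% v/v) and NaCl (100 mM); anaerobic incubation at 37 °C for 72 h. Inhibition zone diameter measured by automated zone sizer.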
On the technique in general: Agar diffusion results depend on both activity and mobility in agar.

Test [5] has as its system S. aureus ATCC 29213. Kind of test: Supplemented disc diffusion assay. The test is classed as cell-based, Staphylococcus aureus. The settings on record: S. aureus ATCC 29213, 200 μg per disc (thymoquinone 50 μg, 2,6-dimethoxy-p-benzoquinone 100 μg). The essentials:
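Paper discs loaded with compound (200 μg per disc for most assays) placed on inoculated Mueller-Hinton agar, pH 7.2, supplemented with 5% v/v defibrinated horse blood, 1% v/v Tween 80 and 100 mM NaCl. Aerobic incubation at 37° C for 24 h; inhibition zone diameter measured.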

Test [6] concerns P. acnes NCTC 737. As to the kind of experiment: Disc diffusion assay (DDA). The format is cell-based, Propionibacterium acnes. Particulars: P. acnes NCTC 737; unsupplemented agar; 200 μg per disc (2,6-dimethoxy-p-benzoquinone 100 μg).
In test [7] the test system is S. aureus ATCC 29213. As to the kind of experiment: MBC assay. The test is classed as cell-based, Staphylococcus aureus. The essentials:
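Follows an MIC assay; samples sub-cultured onto non-selective agar and inspected visually for growth to give the minimum lethal concentration. Culture on Mueller-Hinton medium, pH 7.2, aerobic, 37° C, 24 hours.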

Test [8] concerns P. acnes NCTC 737. As to the kind of experiment: MIC assay. The format is cell-based, Propionibacterium acnes. The settings on record: P. acnes NCTC 737; Wilkins-Chalgren broth pH 6.0, anaerobic, 37° C., 72 hours. The essentials: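 Broth microdilution in Wilkins-Chalgren Anaerobe broth pH 6.0, inoculated with freshly grown P. acnes NCTC 737 and incubated anaerobically at 37° C for 72 hours. MIC is the lowest compound concentration leaving the well visually clear, read on a light box. Run in duplicate with medium-only and solvent-plus-inoculum controls.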

Converted amounts (≈) assume the structure as drawn.

A word on the MIC: it is the lowest concentration that inhibits growth of the organism. Lower therefore signals a more susceptible organism. The MBC is the lowest tested concentration that kills the bacteria rather than only halting them. Low values mean greater bactericidal potency, high ones weaker bactericidal potency.

Regarding `Cc1cc(O)cc(C)c1O` [2,6-dimethyl-p-hydroquinone], the MIC against S. aureus ATCC 29213 [1] amounted to 3.9 µg/mL (≈ 28.2 µM); against P. acnes NCTC 737 [8] it was 7.8 µg/mL (≈ 56.5 µM). Besides, the MBC in the test on P. acnes NCTC 737 [2] was determined as 31.25 µg/mL (≈ 226 µM); with S. aureus ATCC 29213 [7], 7.8 µg/mL (≈ 56.5 µM). Moreover, the MIC/MBC ratio in the test on P. acnes NCTC 737 [2] is on record as 0.25; in the test with S. aureus ATCC 29213 [7], 0.5. Moreover, the results for the “DDA (diameter of zone of inhibition)” value in the test with S. aureus ATCC 29213 [3] and in the test with P. acnes NCTC 737 [6] were 40.88 mm and 0.0 mm, respectively. The “DDA + lipid” value in the test with P. acnes NCTC 737 [4] (Tween 80 at 1% v/v) was determined as 0.0 mm; in the test on S. aureus ATCC 29213 [5] (Tween 80 at 1% v/v), 47.94 mm. In addition, the “DDA + salt” value in the test with P. acnes NCTC 737 [4] (sodium chloride 100 mM) was 0.0 mm; with S. aureus ATCC 29213 [5] (sodium chloride 100 mM) it was 43.89 mm. Further, in the test with S. aureus ATCC 29213 [5] (defibrinated horse blood 5% v/v), the “DDA + blood” value was found to be 25.53 mm.
